Patent US20150094294A1, “COMPOUNDS AND METHODS FOR TREATING MALARIA” (Cellceutix Corporation, priority 2012, published 2015)
pEC50, pIC50: −log10 of the molar value. ≈ marks a conversion by molar mass, not a printed value.

Legend:
Type in all cases: cell-based
[1] = tested on: HepG2 cells; assay: Cytotoxicity against HepG2 cells
[2] = tested on: P. falciparum 3D7 (chloroquine-sensitive); assay: Anti-malarial activity, P. falciparum 3D7 culture, 72 hour, DNA content by flow cytometry; settings: synchronized ring-stage parasites
Protocol: Numerous compounds were screened in cultures of the malaria parasite P. falciparum 3D7 (chloroquine-sensitive) and DD2 (chloroquine-resistant). The compounds were also screened for toxixcity against 3T3 cells, HepG2 cells, and in a hemolysis assay. In brief, P. falciparum parasites were cultured in RPMI 1640 (Invitrogen) supplemented with Albumax II (Invitrogen). For synchronization, schizont stage parasites were magnet purified using a SuperMACS™ II Cell Separation Unit (Miltenyi Biotech). For IC50 determinations, synchronized ring-stage parasites were plated at 0.5% parasitemia and 8% hematocrit in 96-well plates at a total volume of 50 μL. Serial dilutions of 2× concentration of the respective compound, ranging from 2.5 μM to 20 nM, were added to the wells to bring the total volume up to 100 μL and 4% hematocrit. Compounds were assayed for a 72 hour period, after which the cultures were fixed with a solution of 4% paraformaldehyde and 0.08% glutaraldhyde in PBS. The cells were then permeabilized with 0.25% Triton X-100, and SYTOX Green Nucleic Acid Stain (Invitrogen) in PBS was added to a final concentration of 5 μM. DNA content, as an indicator of parasitemia, was analyzed on an Accuri C6 Flow Cytometer with C-Sampler. IC50 curves were generated using GraphPad Prism (GraphPad Software).

[3] = tested on: 3T3 cells; assay: Cytotoxicity against 3T3 cells
[4] = Cytotoxicity against HepG2 cells; settings: human, HepG2 cells; read-out: Cytotoxicity HepG2 EC50
[5] = in vitro
[6] = Cytotoxicity against 3T3 cells; settings: mouse, 3T3 cells; read-out: Cytotoxicity 3T3 EC50
[7] = Plasmodium falciparum, 3D7, 72 h

| SMILES | pEC50 [1] | pIC50 [2] | pEC50 [3] | pEC50 [4] | EC50 [5] [µg/mL] | pIC50 [2, 7] | pEC50 [6] |
| --- | --- | --- | --- | --- | --- | --- | --- |
| N=C(N)NCCCCC(=O)Nc1cc(F)cc(NC(=O)c2cc(C(=O)Nc3cc(F)cc(NC(=O)CCCCNC(=N)N)c3SCCN)ncn2)c1SCCN [Compound 105] | 4.09 | 6.65 | 4.36 | – | – | – | – |
| N=C(N)NCCCCCC(=O)Nc1cc(C(F)(F)F)cc(NC(=O)c2cc(C(=O)Nc3cc(C(F)(F)F)cc(NC(=O)CCCCCNC(=N)N)c3SCCN)ncn2)c1SCCN [Compound 106] | 4.05 | 6.54 | 4.10 | – | – | – | – |
| CCN(CC)CCN(CCN)c1c(Cl)cc(C(F)(F)F)cc1NC(=O)Nc1cc(C(F)(F)F)cc(Cl)c1N(CCN)CCN(CC)CC [Compound 124] | 4.62 | 6.49 | 4.70 | – | – | – | – |
| CCN(CC)CCN(CCN)c1ccc(C(F)(F)F)cc1NC(=O)Nc1cc(C(F)(F)F)ccc1N(CCN)CCN(CC)CC [Compound 126] | 3.25 | 6.18 | 3.85 | – | – | – | – |
| CCN(CC)CCN(CCN)c1c(F)cc(C(F)(F)F)cc1NC(=O)Nc1cc(C(F)(F)F)cc(F)c1N(CCN)CCN(CC)CC [Compound 127] | 3.38 | 6.13 | 3.88 | – | – | – | – |
| N=C(N)NCCCOc1cccc(-c2cncc(-c3cccc(OCCCNC(=N)N)c3)c2)c1 [Compound 133] | 3.26 | 6.93 | 3.53 | – | – | – | – |
| c1cc(N2CCNCC2)ccc1-c1ccc(-c2ccc(N3CCNCC3)cc2)o1 [Compound 255] | – | – | – | 4.35 | 28 (≈ 72.1 µM) | 6.82 | 4.54 |
| c1cc(-c2ccc(N3CCNCC3)nc2)cc(-c2ccc(N3CCNCC3)nc2)c1 [Compound 257] | – | – | – | 3.66 | > 1000 | < 7.00 | 4.40 |
| N=C(N)N1CCN(c2ccc(-c3cccc(-c4ccc(N5CCN(C(=N)N)CC5)nc4)c3)cn2)CC1 [Compound 258] | – | – | – | 3.52 | 545 (≈ 1120 µM) | 7.24 | 3.78 |
| Cn1c(-c2ccc(N3CCNCC3)cc2)cnc1-c1ccc(N2CCNCC2)cc1 [Compound 259] | – | – | – | < 3.00 | 287 (≈ 713 µM) | < 7.00 | < 3.00 |
| Cn1c(-c2ccc(N3CCN(C(=N)N)CC3)cc2)cnc1-c1ccc(N2CCN(C(=N)N)CC2)cc1 [Compound 261] | – | – | – | 3.03 | > 1000 | 7.11 | < 3.00 |
| NCCCc1ccc(-c2ccc(-c3ccc(CCCN)cc3)s2)cc1 [Compound 263] | 6.00 | – | 5.22 | – | – | – | – |
| C[N+]1(C)CCN(c2ccc(-c3ccc(-c4ccc(N5CC[N+](C)(C)CC5)cc4)o3)cc2)CC1 [Compound 264] | < 3.00 | – | < 3.00 | – | – | – | – |
| N=C(N)NCCSc1ccc(NC(=O)Nc2cccc(CCNC(=N)N)c2)cc1C(F)(F)F [Compound 270] | – | – | – | 3.15 | 317 (≈ 657 µM) | 6.97 | 3.40 |
| COc1cc(SCCN)c(C(F)(F)F)cc1NC(=O)Nc1ccc(SCCNC(=N)N)c(C(F)(F)F)c1 [Compound 276] | – | – | – | 3.81 | 65 (≈ 114 µM) | 5.95 | 4.38 |
| NCCCOc1cc(OCCCN)cc(-c2ccc3c(c2)c2cc(-c4cc(OCCCN)cc(OCCCN)c4)ccc2n3CCCN)c1 [Compound 279] | – | – | – | 3.05 | > 1000 | 6.11 | 3.36 |
| CC1(C)c2cc(-c3cccc(CCNC(=N)N)c3)ccc2-c2ccc(-c3cccc(CCNC(=N)N)c3)cc21 [Compound 284] | – | – | – | 4.55 | 2 (≈ 3.87 µM) | < 7.00 | 5.22 |

| SMILES | pEC50 [1] | pIC50 [2] | pEC50 [3] | pEC50 [4] | EC50 [5] [µg/mL] | pIC50 [2, 7] | pEC50 [6] |
| --- | --- | --- | --- | --- | --- | --- | --- |
| c1cc2sc3ccc(NC4CCNCC4)cc3c2cc1NC1CCNCC1 [Compound 295] | < 3.00 | – | < 3.00 | – | – | – | – |
| CN(C)C1CCN(c2ccc3sc4ccc(N5CCC(N(C)C)CC5)cc4c3c2)CC1 [Compound 297] | 3.17 | – | 3.29 | – | – | – | – |
| CCn1c2ccc(N3CCC(N(C)C)CC3)cc2c2cc(N3CCC(N(C)C)CC3)ccc21 [Compound 298] | < 3.00 | – | < 3.00 | – | – | – | – |
| N#Cc1cccc(C(=O)Nc2cc(NC(=O)c3cc(C(=O)Nc4cc(NC(=O)c5cccc(C#N)c5)cc(C(F)(F)F)c4)c(OCCN)cc3OCCN)cc(C(F)(F)F)c2)c1 [Compound 299] | – | – | – | 3.04 | 251 (≈ 292 µM) | < 7.00 | 3.04 |
| COc1cc(SCCN)c(C(F)(F)F)cc1NC(=O)c1cc(C(=O)Nc2cc(C(F)(F)F)c(SCCN)cc2OC)ncn1 [Compound 301] | – | – | – | 3.11 | < 1 | 7.54 | 3.15 |
| COc1cc(SCCNC(=N)N)c(C(F)(F)F)cc1NC(=O)c1cc(C(=O)Nc2cc(C(F)(F)F)c(SCCNC(=N)N)cc2OC)ncn1 [Compound 302] | – | – | – | < 3.00 | 4 (≈ 5.34 µM) | 6.48 | 3.16 |
| CC(=O)Nc1cc(C(F)(F)F)cc(NC(=O)c2cc(C(=O)Nc3cc(C(F)(F)F)cc(NC(C)=O)c3SCCN)ncn2)c1SCCN [Compound 303] | – | – | – | < 3.00 | 62 (≈ 86.3 µM) | 7.47 | 3.05 |
| NCCSc1c(NC(=O)c2ccccc2)cc(C(F)(F)F)cc1NC(=O)c1cc(C(=O)Nc2cc(C(F)(F)F)cc(NC(=O)c3ccccc3)c2SCCN)ncn1 [Compound 304] | – | – | – | 3.03 | 3 (≈ 3.56 µM) | 7.16 | 3.03 |
| NCCSc1c(NC(=O)c2cccc(F)c2)cc(C(F)(F)F)cc1NC(=O)c1cc(C(=O)Nc2cc(C(F)(F)F)cc(NC(=O)c3cccc(F)c3)c2SCCN)ncn1 [Compound 305] | – | – | – | 3.04 | 223 (≈ 254 µM) | 7.11 | 3.05 |
| NCCSc1c(NC(=O)c2cccc(Br)c2)cc(C(F)(F)F)cc1NC(=O)c1cc(C(=O)Nc2cc(C(F)(F)F)cc(NC(=O)c3cccc(Br)c3)c2SCCN)ncn1 [Compound 306] | – | – | – | 3.09 | 793 (≈ 792 µM) | < 7.00 | 3.09 |
| N#Cc1ccc(C(=O)Nc2cc(C(F)(F)F)cc(NC(=O)c3cc(C(=O)Nc4cc(C(F)(F)F)cc(NC(=O)c5ccc(C#N)cc5)c4SCCN)ncn3)c2SCCN)cc1 [Compound 307] | – | – | – | 3.05 | 757 (≈ 848 µM) | 7.39 | 3.07 |
| N#Cc1ccc(C(=O)Nc2cc(C(F)(F)F)cc(NC(=O)c3cc(C(=O)Nc4cc(C(F)(F)F)cc(N)c4SCCN)ncn3)c2SCCN)cc1 [Compound 308] | – | – | – | 4.47 | 2 (≈ 2.62 µM) | < 7.00 | 4.66 |
| COc1ccc(C(=O)Nc2cc(C(F)(F)F)cc(NC(=O)c3cc(C(=O)Nc4cc(C(F)(F)F)cc(NC(=O)c5ccc(OC)cc5)c4SCCN)ncn3)c2SCCN)cc1 [Compound 310] | – | – | – | 3.05 | 81 (≈ 89.7 µM) | 7.08 | < 3.00 |
| NCCSc1c(NC(=O)c2cccnc2)cc(C(F)(F)F)cc1NC(=O)c1cc(C(=O)Nc2cc(C(F)(F)F)cc(NC(=O)c3cccnc3)c2SCCN)ncn1 [Compound 315] | 4.47 | – | 4.68 | – | – | – | – |
| c1cc(N2CCNCC2)ccc1-c1ccc(N2CCNCC2)cc1 [Compound 317] | – | – | – | 3.30 | > 1000 | < 7.00 | 3.26 |
| NCCCc1ccc(-c2ccc(CCCN)cc2)cc1 [Compound 318] | – | – | – | < 3.00 | > 1000 | < 7.00 | 3.20 |
| c1cc(-c2ccc(N3CCNCC3)nc2)cc(-c2cccc(-c3ccc(N4CCNCC4)nc3)c2)c1 [Compound 319] | – | – | – | 4.08 | 52 (≈ 109 µM) | < 7.00 | 4.24 |
